Values joined by “and” are separate entries in the source; they are usually repeats but may differ in a detail not shown here. Equal values may be shown once.

The subject of assay [1] is pigmented rabbits (Chinchilla Bastard). In words: IOP study in pigmented rabbits after single eye drop. Format: in vivo, rabbit. The protocol:
Five 3–5 months old albino (New Zealand White, all females) and five 3–6 months old pigmented rabbits (Chinchilla Bastard, 1 male and 4 females) were purchased from Charles River Laboratories, UK and Germany, respectively. Prior to the experiments, the rabbits were habituated to handling, and the baseline values of IOP were measured. During the experiments, rabbits weighed 2.4–4.0 kg.
First, stock solutions of CAIs (250 mg/mL) in dimethyl sulfoxide (Sigma-Aldrich, Germany) were prepared. These stock solutions were diluted with PBS (pH 7.4) to obtain 1 mg/mL (0.1%) or 10 mg/mL (1%) solutions.
The CAI solutions were tested in albino rabbits (eye drops of 0.1, and 0.5 or 1.0%) and in pigmented rabbits (0.5 or 1.0%). The novel CAI concentrations in solutions were determined based on the drug solubility with the aim to load the highest possible drug concentration to the single eye drop.
Baseline IOP of pigmented rabbits was raised with two intravitreal triamcinolone acetonide injections (Triesence 40 mg/mL, Novartis Finland Ltd.) with 1 week interval to each eye. This method[25],[26] may induce ocular hypertension even up to 60 days in rabbits.[25]
The rabbits were anesthetized with 0.4 mg/kg, s.c. medetomidine (Domitor vet 1 mg/mL, Orion Pharma, Espoo, Finland) and 20 mg/kg s.c. ketamine (Ketaminol vet 50 mg/mL, Pfizer Oy Animal Health, Espoo, Finland). Mydriasis was induced with topical tropicamide eyedrops (Oftan Tropicamid 5 mg/mL, Santen Pharmaceutical Co., Ltd., Tampere, Finland) and the ocular surface was anesthetized with oxybuprocaine eye drop (Oftan Obucain 4 mg/mL, Santen Pharmaceutical Co., Ltd., Tampere, Finland). Thereafter, intravitreal injection of triamcinolone acetonide (100 μL) was given with a 31G needle and syringe. After injection, the eyes were moisturized with carbomer gel (Viscotears 2 mg/g, Dr. Gerhard Mann chem.-pharm. Fabrik GmbH, Berlin, Germany) and the anesthesia was antagonized with 1 mg/kg atipamezole s.c. (Antisedan vet 5 mg/mL, Orion Pharma, Espoo, Finland).
After the second injection, IOP was allowed to settle for 10 days before the experiments were performed. […] Induction of ocular hypertension is presented in Appendix Figure 3. The IOP-lowering effects of the molecules were investigated sequentially, each test initiating once baseline IOP levels was attained.
The IOP levels in the rabbits were measured with a tonometer (Tonometer Pro, Icare Finland Ltd.). After baseline IOP measurements, a single eye drop (25 μL) was applied to the left eye, whereas the right eye was not treated. After eye drop instillation, the eyelids were kept open manually for 1 min. The IOP was measured from both eyes of the rabbits at 0.5, 1, 2, 3, 4, 5, 6, 7, and 8 h after eye drop instillation. In the case of the pigmented rabbits, the measurements were continued until 10 h postinstillation, and further until the IOP had returned to the normal baseline.
The CAIs were tested in the same rabbits to minimize interindividual data variation. Washout periods of at least 3 days were used between instillation of different compounds. The experiments started always at 8 a.m. to eliminate bias due to diurnal IOP fluctuation. At each time point, the pressure was measured three times with the same eye, and the average values were calculated and used in data analysis.

The target of assay [2] is T1, human carbonic anhydrase II (Homo sapiens, UniProt P00918).
T1 construct: purchased Sigma
In words: Multiparametric surface plasmon resonance (MP-SPR) interaction kinetics with immobilized hCAII. Format: binding. The settings on record: MP-SPR, 25 °C, 1:1 model. The protocol: All MP-SPR measurements were conducted at 25 °C using carboxymethyl dextran hydrogel-coated (CMD-3DM) sensors (BioNavis) and were based on the protocol described by Rogez-Florent et al.[22]
Human carbonic anhydrase isoenzyme II (Sigma) was immobilized using a standard amine coupling procedure with the Amine Coupling Kit (BioNavis) and phosphate buffered saline (PBS) (20 mM phosphate buffer, 150 mM NaCl, pH 7.4) as the background buffer. Before immobilization, the sensor surface was cleaned with 2 M sodium chloride and 10 mM sodium hydroxide for 6 min at a flow rate of 30 μL/min. Then, a constant flow rate of 10 μL/min was maintained throughout the immobilization steps. The surface was activated for 7 min with 200 mM 1-ethyl-3-(3-(dimethylamino)propyl)-carbodiimide (EDC) and 50 mM N-hydroxysuccinimide, immediately followed by a 5 min injection of 45 μg/mL hCAII solution in 10 mM acetate buffer, pH 5.5. In the reference flow channel, no enzyme was immobilized. Residual activated groups of the dextran matrix were deactivated by a 7 min injection of 1 M ethanolamine HCl, pH 8.3.
For analyzing CAIs, 1% (v/v) DMSO in PBS, pH 7.4, was used as a running buffer. All CAIs were dissolved in 100% DMSO and stored as 50 mM stock solutions. These stock solutions were further diluted with the running buffer and analyzed using a 3-fold (3–1000 nM) dilution series. […] Each analyte was injected at a flow rate of 100 μL/min, with an association time of 2 min and a dissociation time of 10 min. […] Seven concentrations were measured for each CAI per cycle, and a “wash all” step with running buffer was performed at the end of each cycle to minimize the carry over effects. Each CAI were assayed in triplicate across three independent experiments.
The acquired data were processed using MP-SPR Navi Data Viewer software (version 6.7.0.1, BioNavis) employing the weighted centroid method for determining the SPR peak angular position. Signals from the reference flow channel were subtracted from the corresponding signals of the flow channel containing immobilized hCAII. The moment of sample injection was selected as the zero-time point, where both the time and MP-SPR response were set to zero. Processed data were globally fitted to a simple 1:1 interaction model using TraceDrawer software (version 1.9.2, Ridgeview Instruments AB, Sweden) to obtain kinetic parameters.

For `C/C(=N\Nc1ccc(S(N)(=O)=O)cc1)c1cccnc1` [A01], the “duration of IOP reduction” value in assay [1] (hypertensive pigmented rabbits, single eye drop) amounted to 14 days. For the same compound, the “duration of IOP decrease” value in assay [1] (pigmented rabbits, single eye drop) amounted to 2 weeks. Moreover, the “ratio (AUCpigm/AUCalbino) of IOP response” value in assay [1] (pigmented vs albino rabbits) is 85 and 85.5. Also, in assay [2], the ka is listed as 0.57 ± 0.33 10^6 M^–1 s^–1 and the kd is listed as 1.45 ± 0.15 10^–2 s^–1. For the same compound, the Kd in assay [2] (read-out: KD) was 36.9 ± 23.4 nM.

Source of the values: paper PMC11795524, “Melanin-Binding-Based Discovery of Topically Instilled Carbonic Anhydrase Inhibitors for Targeted Delivery and Prolonged Action in the Eye” (Molecular Pharmaceutics, 2025).
